Experiment [1] relates to Hedgehog signaling pathway in NSCLC tumor (H460). Nature of the experiment: Semi-quantitative RT-PCR of Hh pathway genes in xenograft tumors. It is filed as in vivo, mouse. How it is done:
(§1) To examine whether the lead compound FN1-8 suppressed tumor growth through inhibition of the Hedgehog signaling pathway in vivo, expression of the key components and direct target genes of the Hh pathway (e.g., Shh, Ptch1, Gli1, Gli2, Gli3, Dvl-3) were analyzed by semi-quantitative RT-PCR using total RNA isolated from the xenograft tumors. GAPDH served as a control. This RT-PCR analysis was performed using a “pooled” tumor from two randomly selected mice of each group with reasonable size tumors.

Experiment [2] concerns Hedgehog signaling pathway in HT29 tumor. The experiment is described as above. The class given is in vivo, mouse. The conditions noted are these: HT29 xenograft tumor (negative control). How it is done:
as §1

A further experiment deals with NSCLC H460 tumor. Nature of the experiment: Mouse Xenograft Model (NSCLC H460). The class given is in vivo. How it is done:
The small molecule compound FN1-8 was tested in vivo in the mouse xenograft model bearing human cancer cells. Briefly, female athymic nude mice strain NCRNU-M (5-10 weeks old, 20-25 grams in weight; Taconic, Germantown, N.Y.) was maintained in pathogen-free conditions. Three human cancer cell lines: NSCLC H460, melanoma LOX, (both showing Gli3 activation), and colon cancer HT29 (no Gli3 activation, as a negative control), were used. Ten mice were used in each group and injected s.c. with 3×10^6 cancer cells in the dorsal area in a volume of 100 μl. After inoculation, human cancer cells were allowed to grow in mice for 7 days to become visible tumor nodules. Animals were then injected with small molecule compound FN1-8 at a dose of 50 mg/kg body weight (1 mg/mouse per day). DMSO alone was used as control. The compounds and controls were adjusted in 40 ul volume for i.p. injection in the abdomens of the mice. One mouse was sacrificed within 1 hour after the compound injection (after 6 injections) and its blood was collected. Then mass spectrometry was used to analyze the compound level in the blood sample to confirm the compound absorption into the blood stream of the mice. […] Tumor size was measured every three days, and tumor volumes were calculated using width (x) and length (y) (x^2y/2, where x<y). […]
In vivo efficacy study of small molecule compound FN1-8 were performed using a Mouse Xenograft Model (NSCLC H460). […] Tumor size (length and width according to their shapes) was measured with a caliper every three days. Tumor volumes were calculated using the equation […].
Three weeks after the initial tumor inoculation and the treatment as described above, tumors were dissected from the mice of each group and their weights were measured using a scale.
The in vivo efficacy study of small molecule compounds FN1-5 and FN1-8 in the Mouse Xenograft Model (NSCLC H460) was repeated using lower doses of the compounds. […] 24 days after the initial tumor inoculation, tumors were dissected from the mice of each group and their weights were measured using a scale. […]

The test system of experiment [3] is melanoma cell lines Malme-3M, A375, G361, SK-Mel-2, SK-Mel-5, and SK-Mel-28. Nature of the experiment: Time course of cell survival (flow cytometry). The class given is cell-based, human. As to the method: The time course of cell survival in melanoma cell lines (Malme-3M, A375, G361, SK-Mel-2, SK-Mel-5, and SK-Mel-28) after administration of small molecule compound FN1-8 was analyzed. These melanoma cells were incubated with 10 μM or 20 μM FN1-8. Then flow cytometry was used to examine the percentage of living and dead cells at different time points. […] (FIGS. 18A, B, and C, and data not shown).
Background: A flow cytometer gives signals particle by particle.

In experiment [4] the test system is cytosolic β-catenin in human normal skin fibroblasts (Malme-3). Nature of the experiment: Western blot of cytosolic β-catenin. The conditions noted are these: 10 μM or 20 μM. The class given is cell-based. As to the method:
(§2) […] Protein concentrations were measured using Bio-Rad Protein Assay reagent. Whole cell lysate protein (5-20 ug) were boiled for 5 min and separated by 10-20% SDS-PAGE. Proteins were transferred to an Immobilon-P membrane (Millipore Corp., Bedford, Mass.) using semi-dry transfer cell (Bio-Rad; Benicia, Calif.). The membranes were blocked with 5% nonfat milk powder and 0.1% Tween 20 in Tris-buffer saline overnight at 4° C. and then incubated with primary antibody for 1 h at room temperature. Membranes were washed in 5% nonfat milk powder and 0.1% Tween 20 in Tris-buffer saline for three 10-min periods. Horseradish peroxidase-conjugated goat anti-rabbit or donkey anti-mouse antibodies were used as secondary antibodies. Proteins were visualized with chemiluminescence luminol reagents (Santa Cruz Bio-technology). Anti-Dvl-3, and anti-Survivin, antibodies were from Santa Cruz Biotechnology (Santa Cruz, Calif.). Anti-Caspase3 antibody was from Oncogene (Cambridge, Mass.). Anti-β-Actin antibody was from Sigrna-Aldrich Corp. (St. Louis, Mo.). Anti-β-catenin antibody was from Transduction Laboratories (Lexington, Ky.). Anti-Cytochrome c antibody was from BD Biosciences (San Diego, Calif.). For detecting alteration of β-catenin cytosolic extracts were prepared and examined as described previously in the publications from our lab. […]

Experiment [5] relates to cytosolic β-catenin in melanoma cell lines A375 and SK-Mel-5. Nature of the experiment: Western blot of cytosolic β-catenin. It is filed as cell-based, human. The conditions noted are these: 10 μM or 20 μM. How it is done: as §2

Turning to `O=C(NCCc1ccc(O)cc1)C1C(c2ccccc2)=NN(c2ccccc2)C1c1ccccc1` (stereo not drawn) [FN1-8, N-(2-(4-Hydroxyphenyl)ethyl)-1,3,5-triphenyl-4,5-dihydro-pyrazole-4-carboxyamide], the “Hh signaling in tumor (RT-PCR)” value is “inhibited” in experiment [1] and “no noticeable changes” in experiment [2]. Besides, the tumor growth entry in the experiment on NSCLC H460 tumor (50 mg/kg i.p. daily for 2×6 days) is recorded as “significantly suppressed”. The tumor weight entry is “dramatically decreased” in the experiment on NSCLC H460 tumor (50 mg/kg i.p. daily for 2×6 days, three weeks after inoculation) and “decreased” in the experiment on NSCLC H460 tumor (low dose 15 mg/kg i.p. daily for 2×6 days, 24 days after inoculation). For the same molecule, the “time after which cell killing effect was apparent” value in experiment [3] (20 μM, all tested melanoma cells) came to 2 days. In experiment [3] (Malme-3M, A375, SK-Mel-5 (FIG. 14)), the “apoptosis in time course experiment” value is recorded as “induces significant apoptosis”. The “cytosolic β-catenin level” value in experiment [4] was “no noticeable change”; in experiment [5] it was “down-regulated”.

The record behind these values is patent US7714014B2, “Targeting GLI proteins in human cancer by small molecules” (The Regents of the University of California, priority 2005, dated 2010).
